The source of these data is patent US20140066363A1, “CARBOHYDRATE NANOPARTICLES FOR PROLONGED EFFICACY OF ANTIMICROBIAL PEPTIDE” (priority 2011, published 2014).

Holding throughout (type): cell-based, Listeria monocytogenes
The subject of test [1] is L. monocytogenes. Briefly: Control storage of emulsions in regular test tubes at 4° C. with bioassay. The following applies: 150 μg/mL nisin.
Experimental: The label “free nisin” denotes the preparation containing nisin only in buffer. The total initial concentration of nisin was 150 μg/mL for each preparation. One portion of each preparation was applied to the model system (labeled “Model”), and another portion was stored in a regular test tube as the control (labeled “Control”). Both model and control groups were aliquoted after various storage periods for the activity tests.
Nisin activity, either for those freshly prepared or stored in BHI agar deep-well, was determined as described by Pongtharangkul and Demirci (2004) with modifications. Agar diffusion bioassay was used to determine the nisin activity against L. monocytogenes. BHI (3.7%) solution containing 0.75% agar and 1.0% Tween 20 was prepared and autoclaved. After cooling to approximately 40° C., the solution was inoculated by a 1.0% volume of BHI broth containing L. monocytogenes V7 (ca. 108 colony-forming units/mL). To each square Petri-dish plate (10×10 cm), a 32 mL inoculated BHI agar solution was added and allowed to solidify. Thereafter, holes with 7.0 mm diameter were made using a cork borer, and 100 μL of each nisin preparation was added to each agar well. The Petri-dish plates were then incubated for 24 h at room temperature, and the size of inhibitory ring was measured to indicate the activity against L. monocytogenes. […]
The next test deals with L. monocytogenes V7. Nature of the test: BHI-agar deep-well model of nisin depletion (50 days, 4° C.) with bioassay, emulsions. The protocol: To prepare emulsions, PG-OS and WCS-OS were each dissolved in sodium acetate buffer (50 mM, pH 5.5, 22° C.) to form a solution of 10 mg/mL. As a reference, 1.0 mg/mL of Tween 20 solution was also prepared using the sodium acetate buffer. Vegetable oil was added to each emulsifier solution, at twice (for PG-OS and WCS-OS) or 20 times (Tween 20) the weight of the emulsifier. […] Each mixture was further diluted with the same volume of sodium acetate buffer. […] These emulsions were sterilized using a boiling-water bath for 3 min before further tests. Nisin activity, either for those freshly prepared or stored in BHI agar deep-well, was determined as described by Pongtharangkul and […] (2004) with modifications. Agar diffusion bioassay was used to determine the nisin activity against L. monocytogenes. […] After cooling to approximately 40° C., the solution was inoculated by a 1.0% volume of BHI broth containing L. monocytogenes V7 (ca. 108 colony-forming units/mL). To each square Petri-dish plate (10×10 cm), a 32 mL inoculated BHI agar solution was added and allowed to solidify. […] The Petri-dish plates were then incubated for 24 h at room temperature, and the size of inhibitory ring was measured to indicate the activity against L. monocytogenes. […] The hot solution (225 mL) was poured into a 600-mL beaker to a height of 40 mm. After gel solidification, four wells (from gel surface to bottom) were made in each beaker using a 7.0-mm borer.

Test [2] concerns L. monocytogenes. Nature of the test: BHI-agar deep-well model of nisin depletion (21 days, 4° C.) with bioassay, PG derivatives. Here is the method:
Nisin activity, either for those freshly prepared or stored in BHI agar deep-well, was determined as described by Pongtharangkul and Demirci (2004) with modifications. Agar diffusion bioassay was used to determine the nisin activity against L. monocytogenes. BHI (3.7%) solution containing 0.75% agar and 1.0% Tween 20 was prepared and autoclaved. After cooling to approximately 40° C., the solution was inoculated by a 1.0% volume of BHI broth containing L. monocytogenes V7 (ca. 108 colony-forming units/mL). To each square Petri-dish plate (10×10 cm), a 32 mL inoculated BHI agar solution was added and allowed to solidify. Thereafter, holes with 7.0 mm diameter were made using a cork borer, and 100 μL of each nisin preparation was added to each agar well. The Petri-dish plates were then incubated for 24 h at room temperature, and the size of inhibitory ring was measured to indicate the activity against L. monocytogenes.
In this study, a BHI-agar deep-well model was established to mimic the depletion of nisin at nutrient-containing surfaces, such as a food surface (FIG. 1). BHI is a nutritious culture medium that supplies protein and other nutrients necessary to support the growth of fastidious and nonfastidious microorganisms. It contains infusions from calf brains and beef hearts, proteose and peptone, dextrose, sodium chloride, and disodium phosphate. […] Therefore, BHI is an ideal nutrient model for studying nisin depletion and retention. Our experiments have consistently shown that BHI-containing broths and gels lead to rapid depletion of peptide activity. In a deep well filled with a liquid peptide preparation, peptide molecules diffuse from the solution into the gel (causing diffusion-based depletion), and BHI components diffuse from the agar gel into the solution (causing irreversible peptide adsorption or degradation).
For continuous sampling at various stages of storage, nisin preparations were added to the deep wells of the BHI-agar gel. For the deep-well storage, the inner surface of a well was used to mimic the outer surface of solid food. […]

[3] abbreviates: initial nisin 150 μg/mL, calculated from ring size by standard curve.

For the substance nisin [free nisin], the “change of inhibitory ring size during storage, control groups” value in the test with L. monocytogenes [1] is given as “did not show an appreciable change”. Also, the “size of inhibitory ring after 40 days, model groups” value in the test on L. monocytogenes V7 (deep-well model, 4° C., 150 μg/mL nisin) is given as “undetectable”. Further, in the test on L. monocytogenes V7 (setting [3]), the “available nisin after 5 days” value was 10.2 µg/mL, the “available nisin after 20 days” value is less than 1 µg/mL and the “available nisin after 40 days” value was “negligible”. The “retained activity at day 5” value with L. monocytogenes [2] (deep wells in BHI-agar gel, summary) is “negligible”. The “residual nisin activity after 7 days” value in the test with L. monocytogenes [2] (deep-well model, 4° C., 100 μg/mL nisin) is listed as “negligible”. Further, the “nisin activity at 0 day” value in the test with L. monocytogenes [2] (deep-well model, initial test, 100 μg/mL nisin) is listed as “highest nisin activity”.
